Experiments:
[1] = target: T1, TRβ (Homo sapiens, UniProt P10828); test: TRβ-anti CALUX reporter gene assay (antagonistic mode); type: cell-based; parameters: key: –: no effect observed up to the highest test concentration; details: PC20, 24 h exposure
T1 construct: expression construct for the full-length human receptor under investigation; expressed in transfected cells; host or cells: human U2-OS cells (ATCC HTB-96), stably transfected
T1 sequence (P10828 1-461): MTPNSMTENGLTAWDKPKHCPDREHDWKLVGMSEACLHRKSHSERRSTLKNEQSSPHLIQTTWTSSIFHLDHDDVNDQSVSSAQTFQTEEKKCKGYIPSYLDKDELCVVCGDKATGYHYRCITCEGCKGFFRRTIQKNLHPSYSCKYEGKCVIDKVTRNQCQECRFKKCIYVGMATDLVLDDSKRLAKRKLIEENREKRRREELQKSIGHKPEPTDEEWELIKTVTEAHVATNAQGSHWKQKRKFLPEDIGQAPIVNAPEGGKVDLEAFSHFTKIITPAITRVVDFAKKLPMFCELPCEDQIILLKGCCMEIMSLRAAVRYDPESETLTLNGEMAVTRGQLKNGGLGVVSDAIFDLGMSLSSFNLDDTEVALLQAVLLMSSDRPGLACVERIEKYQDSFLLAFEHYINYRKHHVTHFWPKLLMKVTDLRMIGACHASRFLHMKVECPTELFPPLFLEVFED
Description: 2-methylimidazole 99.0%, zinc(II) nitrate hexahydrate ≥99.0%, para-cymene 99.0%, 1,4-dioxane 99.8% (anhydrous), 4-nitroaniline ≥99.0%, 1-octanol ≥99.0%, diglyme ≥99.0%, DMSO-d6 (99.8% D) and chloroform-d (99.8% D) were purchased from Sigma-Aldrich. Toluene ≥99.0%, hexane ≥99.5%, DCM ≥99.5%, chloroform ≥99.5%, DMSO ≥99.0% were purchased from VWR. N,N-diethyl-4-nitroaniline ≥98.0% was purchased from Alfa Aeser. Cyrene was supplied by Circa group. N-butylpyrrolidinone was supplied by Eastman chemicals. N,N-dimethylformamide 99.9% and N,N-dimethylacetamide 99.9% were purchased from Fischer. The flakes of Ultrason® E3020 P Polyarylethersulfone of 55,000 Da were obtained from INGE.BASF, Germany. The CALUX cell lines have been described previously.[1] They are based on human U2-OS cells (ATCC, HTB-96) stably transfected with an expression construct for the full-length human receptor under investigation, and a reporter construct consisting of multimerized responsive elements for the cognate receptor coupled to a minimal promoter element (TATA) and a luciferase gene. Cells were maintained as described previously,[2] using cell culture media and supplements from Fisher Scientific as described in the experimental procedures section. […]
(§1) In vitro reporter gene assays
(§2) The automated CALUX assays were carried out similarly as described earlier,[12] with some adaptations. In brief, the assay was performed in CO2 independent medium (Fisher Scientific, […]
(§3) supplement (Fisher Scientific, 11574466), 10 U/mL penicillin and 10 µg/mL streptomycin. A cell suspension in assay medium was made of 1 × 10^5cells/mL, and white 384-wells plates were seeded with 30 µl cell suspension/well. After 24 h, exposure medium was prepared. A dilution series in 0.5log unit increments of each test compound (in DMSO) was added to a 96-wells plate containing assay medium (2% v/v). Of this exposure mixture, 30 µl was added to the assay plates containing the CALUX cells, resulting in a final DMSO concentration of 1%. Additionally, DMSO blanks and a full dose response curve of the relevant reference compound were included on each plate. All samples were tested in triplicate. The preparation of the compound dilution series as well as the exposure of the cells were performed on a Hamilton StarLET liquid handling robot coupled to a Cytomat incubator.
(§4) Directly after exposure, plates were sealed with non-breathing plate seals (Plate sealer, easy seal transparent; Greiner-Bio-One, 676001). After 24 h the exposure medium was removed using an EL406 washer-dispenser (BioTek) and 10 µl/well triton lysisbuffer was added by the EL406.
Subsequently, the luciferase signal was measured in a luminometer (InfinitePro coupled to a Connect Stacker, both TECAN). In order to be able to detect receptor antagonism, several assays were also performed in antagonistic mode. […]
The luminometer data was analysed as follows; the average of the triplicate wells was determined, and the average blank (DMSO) value was subtracted. […] For antagonist- and cytotoxicity experiments, PC20 values were determined instead, which was defined as the concentration where the test compound causes a 20% decrease in the basal signal, which was […]
(§5) curve, the signal induction above background (DMSO) was determined, and the concentration where the compound elicited a 1.5-fold increase above background was used as LEC.

[2] = target: T2, PXR (Homo sapiens, UniProt O75469); test: PXR CALUX reporter gene assay; type: cell-based; parameters: key: –: no effect observed up to the highest test concentration; details: PC10, 24 h exposure
T2 construct: expression construct for the full-length human receptor under investigation; expressed in transfected cells; host or cells: human U2-OS cells (ATCC HTB-96), stably transfected
T2 sequence (O75469 1-434): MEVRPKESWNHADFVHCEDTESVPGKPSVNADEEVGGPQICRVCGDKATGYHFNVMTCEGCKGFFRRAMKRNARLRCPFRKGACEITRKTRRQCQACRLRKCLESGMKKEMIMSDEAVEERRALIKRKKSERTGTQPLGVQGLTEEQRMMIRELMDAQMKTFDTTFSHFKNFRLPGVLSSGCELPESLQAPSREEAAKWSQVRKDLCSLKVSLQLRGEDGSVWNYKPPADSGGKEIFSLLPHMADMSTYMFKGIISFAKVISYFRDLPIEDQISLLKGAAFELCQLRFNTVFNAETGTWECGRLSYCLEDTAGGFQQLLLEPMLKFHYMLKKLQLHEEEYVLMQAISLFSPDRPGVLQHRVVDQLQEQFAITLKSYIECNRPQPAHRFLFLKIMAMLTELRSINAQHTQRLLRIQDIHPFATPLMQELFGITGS
Description: PXR activation leads to the induction of metabolic enzymes, resulting in enhanced metabolism of a wide range of compounds. […]
Polyarylethersulfone of 55,000 Da were obtained from INGE.BASF, Germany. The CALUX cell lines have been described previously.[1] They are based on human U2-OS cells (ATCC, HTB-96) stably transfected with an expression construct for the full-length human receptor under investigation, and a reporter construct consisting of multimerized responsive elements for the cognate receptor coupled to a minimal promoter element (TATA) and a luciferase gene. Cells were maintained as described previously,[2] using cell culture media and supplements from Fisher Scientific as described in the experimental procedures section. […]
as §1, §2, §3, §4
Subsequently, the luciferase signal was measured in a luminometer (InfinitePro coupled to a Connect Stacker, both TECAN). In order to be able to detect receptor antagonism, several assays were also performed in antagonistic mode. The assay procedure was as described above, with the only exception that the EC50 concentration of the reference agonist was present during the exposure.
The luminometer data was analysed as follows; the average of the triplicate wells was determined, and the average blank (DMSO) value was subtracted. For receptor-based assays the maximum response elicited by the reference compound was set to 100% (full receptor- or pathway activation), and the other values were scaled accordingly. GraphPad Prism was used to fit a sigmoidal curve through the data (four parameters, variable slope). […] For antagonist- and cytotoxicity experiments, PC20 values were determined instead, which was defined as the concentration where the test compound causes a 20% decrease in the basal signal, which was […]
as §5

Row | SMILES | LEC TRβ‐anti [1] | LEC PXR [2]
1 | CCCCN(CC)C(=O)CCC(=O)N(CC)CCCC [EBSA, N,N′‐diethyl‐N,N′‐dibutylsuccindiamide] | – | −5.0 Log M
2 | CCCCN(C)C(=O)CCC(=O)N(C)CCCC [MBSA, N,N′‐dimethyl‐N,N′‐dibutylsuccindiamide] | – | −3.9 Log M
3 | CCCCN1CCCC1=O [NBP, N‐Butylpyrrolidinone, reference compound] | – | −3.2 Log M
4 | CN1CCCC1=O [NMP, N‐methyl‐2‐pyrrolidone, reference compound] | – | –
5 | CCCCN(CCCC)C(=O)CCC(=O)N(CCCC)CCCC [TBSA, N,N,N′,N′‐tetrabutylsuccindiamide] | – | −6.1 Log M

From article PMC7318222, “A Family of Water‐Immiscible, Dipolar Aprotic, Diamide Solvents from Succinic Acid” (Chemsuschem, 2020)
